Data published in patent publication US20150038435A1, “N-TERMINALLY MODIFIED OLIGOPEPTIDES AND USES THEREOF” (Novo Nordisk A/S, priority 2012, published 2015).
pEC50: −log10 of the molar value. *: point of attachment. Lauroyl = CCCCCCCCCCCC(=O)*

Columns and labels:
Chymotrypsin = experiment: Inhibition of enzymatic degradation of a model GLP-1 (FRET substrate) by chymotrypsin; type: biochemical
Procedure, shortened: (§1)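 Initial-rate slopes of fluorescence rise (320 nm ex, 405 nm em), fitted over the linear early phase and averaged from duplicates, were plotted against inhibitor concentration and fitted logistically to give EC50. Reactions ran at 37° C in Dulbecco's PBS, with MCA/DNP GLP-1 FRET substrate added as 10 μl of 100 μM stock.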

Trypsin = experiment: Inhibition of enzymatic degradation of a model GLP-1 (FRET substrate) by trypsin; type: biochemical
Procedure, shortened: as §1

[1] = Hydrophobicity: retention time during reverse phase HPLC; type: physicochemical; details: Acquity CSH C18; pH 7.2 buffer/CH3CN gradient; 40° C.
Description: The retention time (RT) during reverse phase HPLC was taken as a measure of hydrophobicity of an N-terminally modified peptide or oligopeptide of the invention, where the connection is: The longer the RT, the more hydrophobic N-terminally modified peptide or oligopeptide. The following running conditions were applied during HPLC analysis:
Buffer B: 70% (v/v) aq. CH3CN

[2] = compound 0.1 mM, buffer containing 8% DMSO

Substance: N-dodecanoyl-Ile-Pro-Tyr-OH [Example 120]
- Slope of the initial increase in fluorescence obtained during incubation with 0.001 mg/ml Chymotrypsin (Chymotrypsin; [2]): 0.17
- Slope of the initial increase in fluorescence obtained during incubation with 0.001 mg/ml Trypsin (Trypsin; [2]): 1.08
- RT (retention time during reverse phase HPLC as a measure of hydrophobicity) [1]: 7.82 min

Substance: N-tetradecanoyl-βAla-βAla-βAla-Pro-Phe-OH [Example 138]
- pEC50 (Chymotrypsin; read-out: EC50 Chymotrypsin (0.001 mg/ml), 0.001 mg/ml chymotrypsin, 37° C., ± standard error if at least 3 measurements): 3.81
- pEC50 (Trypsin; read-out: EC50 Trypsin (0.001 mg/ml), 0.001 mg/ml trypsin, 37° C.): 4.41
- RT (retention time during reverse phase HPLC as a measure of hydrophobicity) [1]: 8.16 min

Substance: N-dodecanoyl-Ala-Pro-Pro-Tyr-OH (Lauroyl-APPY-OH; SMILES CCCCCCCCCCCC(=O)N[C@@H](C)C(=O)N1CCC[C@H]1C(=O)N1CCC[C@H]1C(=O)N[C@@H](Cc1ccc(O)cc1)C(=O)O) [Example 85]
- Slope of the initial increase in fluorescence obtained during incubation with 0.001 mg/ml Chymotrypsin (Chymotrypsin; [2]): 1.81
- Slope of the initial increase in fluorescence obtained during incubation with 0.001 mg/ml Trypsin (Trypsin; [2]): 1.92
- RT (retention time during reverse phase HPLC as a measure of hydrophobicity) [1]: 6.1 min

Substance: N-dodecanoyl-Val-Ala-Pro-Tyr-OH (Lauroyl-VAPY-OH; SMILES CCCCCCCCCCCC(=O)N[C@H](C(=O)N[C@@H](C)C(=O)N1CCC[C@H]1C(=O)N[C@@H](Cc1ccc(O)cc1)C(=O)O)C(C)C) [Example 55]
- Slope of the initial increase in fluorescence obtained during incubation with 0.001 mg/ml Chymotrypsin (Chymotrypsin; [2]): 0.42
- Slope of the initial increase in fluorescence obtained during incubation with 0.001 mg/ml Trypsin (Trypsin; [2]): 1.88
- RT (retention time during reverse phase HPLC as a measure of hydrophobicity) [1]: 7.01 min

Substance: N-dodecanoyl-Pro-Ala-Ala-Pro-Tyr-OH [Example 48]
- Slope of the initial increase in fluorescence obtained during incubation with 0.001 mg/ml Chymotrypsin (Chymotrypsin; [2]): 0.07
- Slope of the initial increase in fluorescence obtained during incubation with 0.001 mg/ml Trypsin (Trypsin; [2]): 1.55
- RT (retention time during reverse phase HPLC as a measure of hydrophobicity) [1]: 6.2 min

Substance: N-dodecanoyl-Lys-Ala-Pro-Tyr-OH (Lauroyl-KAPY-OH; SMILES CCCCCCCCCCCC(=O)N[C@@H](CCCCN)C(=O)N[C@@H](C)C(=O)N1CCC[C@H]1C(=O)N[C@@H](Cc1ccc(O)cc1)C(=O)O) [Example 45]
- Slope of the initial increase in fluorescence obtained during incubation with 0.001 mg/ml Chymotrypsin (Chymotrypsin; [2]): 0.89
- Slope of the initial increase in fluorescence obtained during incubation with 0.001 mg/ml Trypsin (Trypsin; [2]): 1.84
- RT (retention time during reverse phase HPLC as a measure of hydrophobicity) [1]: 4.62 min

Substance: N-dodecanoyl-γGlu-γGlu-Ala-Ala-Pro-Tyr-OH [Example 99]
- Slope of the initial increase in fluorescence obtained during incubation with 0.001 mg/ml Chymotrypsin (Chymotrypsin; [2]): 0.35
- Slope of the initial increase in fluorescence obtained during incubation with 0.001 mg/ml Trypsin (Trypsin; [2]): 1.52
- RT (retention time during reverse phase HPLC as a measure of hydrophobicity) [1]: 3.41 min

Substance: N-dodecanoyl-γGlu-OEG-Pro-Arg-OH [Example 127]
- Slope of the initial increase in fluorescence obtained during incubation with 0.001 mg/ml Chymotrypsin (Chymotrypsin; compound 1 mM): 0.62
- Slope of the initial increase in fluorescence obtained during incubation with 0.001 mg/ml Trypsin (Trypsin; compound 1 mM): 0.72
- RT (retention time during reverse phase HPLC as a measure of hydrophobicity) [1]: 3.67 min

Substance: N-dodecanoyl-Ala-Met-Pro-Tyr-OH (Lauroyl-AMPY-OH; SMILES CCCCCCCCCCCC(=O)N[C@@H](C)C(=O)N[C@@H](CCSC)C(=O)N1CCC[C@H]1C(=O)N[C@@H](Cc1ccc(O)cc1)C(=O)O) [Example 83]
- Slope of the initial increase in fluorescence obtained during incubation with 0.001 mg/ml Chymotrypsin (Chymotrypsin; [2]): 0.32
- Slope of the initial increase in fluorescence obtained during incubation with 0.001 mg/ml Trypsin (Trypsin; [2]): 1.64
- RT (retention time during reverse phase HPLC as a measure of hydrophobicity) [1]: 6.88 min

Substance: N-dodecanoyl-Ala-Ser-Pro-Tyr-OH (Lauroyl-ASPY-OH; SMILES CCCCCCCCCCCC(=O)N[C@@H](C)C(=O)N[C@@H](CO)C(=O)N1CCC[C@H]1C(=O)N[C@@H](Cc1ccc(O)cc1)C(=O)O) [Example 86]
- Slope of the initial increase in fluorescence obtained during incubation with 0.001 mg/ml Chymotrypsin (Chymotrypsin; [2]): 0.33
- Slope of the initial increase in fluorescence obtained during incubation with 0.001 mg/ml Trypsin (Trypsin; [2]): 1.89
- RT (retention time during reverse phase HPLC as a measure of hydrophobicity) [1]: 5.64 min

Substance: N-dodecanoyl-γGlu-Ala-Ala-Pro-Tyr-OH [Example 97]
- Slope of the initial increase in fluorescence obtained during incubation with 0.001 mg/ml Chymotrypsin (Chymotrypsin; [2]): 0.55
- Slope of the initial increase in fluorescence obtained during incubation with 0.001 mg/ml Trypsin (Trypsin; [2]): 1.31
- RT (retention time during reverse phase HPLC as a measure of hydrophobicity) [1]: 3.79 min

Substance: N-dodecanoyl-Trp-Pro-Tyr-OH [Example 109]
- Slope of the initial increase in fluorescence obtained during incubation with 0.001 mg/ml Chymotrypsin (Chymotrypsin; [2]): 0.05
- Slope of the initial increase in fluorescence obtained during incubation with 0.001 mg/ml Trypsin (Trypsin; [2]): 0.73
- RT (retention time during reverse phase HPLC as a measure of hydrophobicity) [1]: 8.24 min

Substance: N-dodecanoyl-Thr-Ala-Pro-Tyr-OH (Lauroyl-TAPY-OH; SMILES CCCCCCCCCCCC(=O)N[C@H](C(=O)N[C@@H](C)C(=O)N1CCC[C@H]1C(=O)N[C@@H](Cc1ccc(O)cc1)C(=O)O)[C@@H](C)O) [Example 53]
- Slope of the initial increase in fluorescence obtained during incubation with 0.001 mg/ml Chymotrypsin (Chymotrypsin; [2]): 0.16
- Slope of the initial increase in fluorescence obtained during incubation with 0.001 mg/ml Trypsin (Trypsin; [2]): 1.80
- RT (retention time during reverse phase HPLC as a measure of hydrophobicity) [1]: 5.52 min

Substance: N-dodecanoyl-Ala-Ala-Asp-Tyr-OH (Lauroyl-AADY-OH; SMILES CCCCCCCCCCCC(=O)N[C@@H](C)C(=O)N[C@@H](C)C(=O)N[C@@H](CC(=O)O)C(=O)N[C@@H](Cc1ccc(O)cc1)C(=O)O) [Example 60]
- Slope of the initial increase in fluorescence obtained during incubation with 0.001 mg/ml Chymotrypsin (Chymotrypsin; [2]): 0.91
- Slope of the initial increase in fluorescence obtained during incubation with 0.001 mg/ml Trypsin (Trypsin; [2]): 1.73
- RT (retention time during reverse phase HPLC as a measure of hydrophobicity) [1]: 4.33 min

Substance: N-dodecanoyl-γGlu-OEG-OEG-Arg-OH [Example 132]
- Slope of the initial increase in fluorescence obtained during incubation with 0.001 mg/ml Chymotrypsin (Chymotrypsin; compound 1 mM): 0.35
- Slope of the initial increase in fluorescence obtained during incubation with 0.001 mg/ml Trypsin (Trypsin; compound 1 mM): 0.26
- RT (retention time during reverse phase HPLC as a measure of hydrophobicity) [1]: 3.62 min

Substance: N-dodecanoyl-Ala-Ala-Gly-Tyr-OH (Lauroyl-AAGY-OH; SMILES CCCCCCCCCCCC(=O)N[C@@H](C)C(=O)N[C@@H](C)C(=O)NCC(=O)N[C@@H](Cc1ccc(O)cc1)C(=O)O) [Example 63]
- Slope of the initial increase in fluorescence obtained during incubation with 0.001 mg/ml Chymotrypsin (Chymotrypsin; [2]): 1.89
- Slope of the initial increase in fluorescence obtained during incubation with 0.001 mg/ml Trypsin (Trypsin; [2]): 1.90
- RT (retention time during reverse phase HPLC as a measure of hydrophobicity) [1]: 5.46 min

Substance: N-dodecanoyl-Ala-Ala-Gln-Tyr-OH (Lauroyl-AAQY-OH; SMILES CCCCCCCCCCCC(=O)N[C@@H](C)C(=O)N[C@@H](C)C(=O)N[C@@H](CCC(N)=O)C(=O)N[C@@H](Cc1ccc(O)cc1)C(=O)O) [Example 61]
- Slope of the initial increase in fluorescence obtained during incubation with 0.001 mg/ml Chymotrypsin (Chymotrypsin; [2]): 2.20
- Slope of the initial increase in fluorescence obtained during incubation with 0.001 mg/ml Trypsin (Trypsin; [2]): 2.07
- RT (retention time during reverse phase HPLC as a measure of hydrophobicity) [1]: 8.28 min

Substance: N-dodecanoyl-Ala-Trp-Pro-Tyr-OH (Lauroyl-AWPY-OH; SMILES CCCCCCCCCCCC(=O)N[C@@H](C)C(=O)N[C@@H](Cc1c[nH]c2ccccc12)C(=O)N1CCC[C@H]1C(=O)N[C@@H](Cc1ccc(O)cc1)C(=O)O) [Example 88]
- Slope of the initial increase in fluorescence obtained during incubation with 0.001 mg/ml Chymotrypsin (Chymotrypsin; [2]): 0.11
- Slope of the initial increase in fluorescence obtained during incubation with 0.001 mg/ml Trypsin (Trypsin; [2]): 0.80
- RT (retention time during reverse phase HPLC as a measure of hydrophobicity) [1]: 7.88 min

Substance: N-dodecanoyl-Gln-Pro-Tyr-OH [Example 116]
- Slope of the initial increase in fluorescence obtained during incubation with 0.001 mg/ml Chymotrypsin (Chymotrypsin; [2]): 1.48
- Slope of the initial increase in fluorescence obtained during incubation with 0.001 mg/ml Trypsin (Trypsin; [2]): 1.75
- RT (retention time during reverse phase HPLC as a measure of hydrophobicity) [1]: 5.08 min

Substance: N-dodecanoyl-OEG-OEG-Phe-OH [Example 128]
- Slope of the initial increase in fluorescence obtained during incubation with 0.001 mg/ml Chymotrypsin (Chymotrypsin; compound 1 mM): 0.86
- Slope of the initial increase in fluorescence obtained during incubation with 0.001 mg/ml Trypsin (Trypsin; compound 1 mM): 0.35
- RT (retention time during reverse phase HPLC as a measure of hydrophobicity) [1]: 3.08 min

Substance: N-dodecanoyl-Ala-Tyr-Pro-Tyr-OH (Lauroyl-AYPY-OH; SMILES CCCCCCCCCCCC(=O)N[C@@H](C)C(=O)N[C@@H](Cc1ccc(O)cc1)C(=O)N1CCC[C@H]1C(=O)N[C@@H](Cc1ccc(O)cc1)C(=O)O) [Example 89]
- Slope of the initial increase in fluorescence obtained during incubation with 0.001 mg/ml Chymotrypsin (Chymotrypsin; [2]): 0.80
- Slope of the initial increase in fluorescence obtained during incubation with 0.001 mg/ml Trypsin (Trypsin; [2]): 1.86
- RT (retention time during reverse phase HPLC as a measure of hydrophobicity) [1]: 6.23 min

Substance: N-dodecanoyl-Ala-Gly-Pro-Tyr-OH (Lauroyl-AGPY-OH; SMILES CCCCCCCCCCCC(=O)N[C@@H](C)C(=O)NCC(=O)N1CCC[C@H]1C(=O)N[C@@H](Cc1ccc(O)cc1)C(=O)O) [Example 78]
- Slope of the initial increase in fluorescence obtained during incubation with 0.001 mg/ml Chymotrypsin (Chymotrypsin; [2]): 1.03
- Slope of the initial increase in fluorescence obtained during incubation with 0.001 mg/ml Trypsin (Trypsin; [2]): 1.87
- RT (retention time during reverse phase HPLC as a measure of hydrophobicity) [1]: 5.59 min
